How the values were obtained:
[1] = molecular target: T1, EcLTA (E. coli L-Thr aldolase, EC 4.1.24) (Escherichia coli, UniProt P75823); assay: aldehyde dehydrogenase-coupled retro-aldol assay, A340; type: biochemical; conditions: L-Thr only, no aldehyde acceptor
T1 sequence (P75823 1-333): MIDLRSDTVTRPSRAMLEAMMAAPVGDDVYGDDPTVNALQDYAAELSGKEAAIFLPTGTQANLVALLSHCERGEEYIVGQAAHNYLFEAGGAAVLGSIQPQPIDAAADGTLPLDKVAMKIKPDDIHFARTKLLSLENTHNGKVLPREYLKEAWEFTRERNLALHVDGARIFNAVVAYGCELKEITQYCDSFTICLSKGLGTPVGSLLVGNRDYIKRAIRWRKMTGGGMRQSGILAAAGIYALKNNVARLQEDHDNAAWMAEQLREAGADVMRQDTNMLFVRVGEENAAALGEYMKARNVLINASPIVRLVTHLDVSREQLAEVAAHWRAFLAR

EcGlyA (E. coli SHMT) = molecular target: T2, EcGlyA (E. coli SHMT) (Escherichia coli, UniProt P0A825); assay: as above; type: biochemical; conditions: L-Thr only, no aldehyde acceptor
T2 sequence (P0A825 1-417): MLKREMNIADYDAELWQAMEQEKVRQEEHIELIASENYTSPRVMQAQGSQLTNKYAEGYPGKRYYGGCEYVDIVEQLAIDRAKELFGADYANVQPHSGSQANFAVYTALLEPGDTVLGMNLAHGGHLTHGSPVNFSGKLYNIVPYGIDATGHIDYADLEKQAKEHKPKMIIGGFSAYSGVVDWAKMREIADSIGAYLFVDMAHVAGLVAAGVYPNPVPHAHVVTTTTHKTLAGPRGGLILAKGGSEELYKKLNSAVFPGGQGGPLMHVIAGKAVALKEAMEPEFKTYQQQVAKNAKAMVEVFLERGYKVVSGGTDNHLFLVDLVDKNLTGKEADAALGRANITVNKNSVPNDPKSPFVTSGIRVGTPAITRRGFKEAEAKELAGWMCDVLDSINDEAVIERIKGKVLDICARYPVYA

## C[C@@H](O)[C@H](N)C(=O)O [L-Thr]
[1]
  specific activity: EcLTA, and EcGlyA were shown to catalyze a retro-aldol-type reaction in the presence of only L-Thr
EcGlyA (E. coli SHMT)
  specific activity: EcLTA, and EcGlyA were shown to catalyze a retro-aldol-type reaction in the presence of only L-Thr

Source: publication PMC3528340 (Journal of the American Chemical Society, 2012)
